One block for each compound: values may come before it.
How the values were obtained:
[1] = molecular target: Serine/threonine-protein kinase TAO1 (Homo sapiens) (UniProt Q7L7X3); assay: Selectivity interaction (KinomeScan (DiscoverX)) EUB0000178b TAOK1; conditions: at 1 µM
[2] = molecular target: Casein kinase II subunit alpha (Homo sapiens, UniProt P68400); assay: Selectivity interaction (Kinase panel (University of Dundee)) EUB0000169b CSNK2A1; conditions: at 10 µM
[3] = molecular target: Serine/threonine-protein kinase PLK2 (Homo sapiens) (UniProt Q9NYY3); assay: Selectivity interaction (KinomeScan (DiscoverX)) EUB0000169b PLK2; conditions: at 1 µM
[4] = molecular target: Ribosomal protein S6 kinase alpha-4 (Homo sapiens) (UniProt O75676); assay: Selectivity interaction (KinomeScan (DiscoverX)) EUB0000169b RPS6KA4; conditions: at 1 µM
[5] = test system: ALK tyrosine kinase receptor (Homo sapiens), Q9UM73 [C1156Y]; assay: Selectivity interaction (KinomeScan (DiscoverX)) EUB0000169b ALK; conditions: at 1 µM
[6] = molecular target: Mitogen-activated protein kinase 14 (Homo sapiens, UniProt Q16539); conditions: at 10 µM
[7] = molecular target: Ribosomal protein S6 kinase beta-1 (Homo sapiens) (UniProt P23443); conditions: at 10 µM
[8] = molecular target: Serine/threonine-protein kinase TAO1 (Homo sapiens) (UniProt Q7L7X3); assay: Selectivity interaction (KinomeScan (DiscoverX)) EUB0000702a TAOK1; conditions: at 1 µM
[9] = molecular target: Serine/threonine-protein kinase PLK2 (Homo sapiens) (UniProt Q9NYY3); assay: Selectivity interaction (KinomeScan (DiscoverX)) EUB0000702a PLK2; conditions: at 1 µM
[10] = molecular target: T1, Ephrin type-B receptor 6 (Homo sapiens) (UniProt O15197); conditions: at 1 µM
T1 sequence (whole entry): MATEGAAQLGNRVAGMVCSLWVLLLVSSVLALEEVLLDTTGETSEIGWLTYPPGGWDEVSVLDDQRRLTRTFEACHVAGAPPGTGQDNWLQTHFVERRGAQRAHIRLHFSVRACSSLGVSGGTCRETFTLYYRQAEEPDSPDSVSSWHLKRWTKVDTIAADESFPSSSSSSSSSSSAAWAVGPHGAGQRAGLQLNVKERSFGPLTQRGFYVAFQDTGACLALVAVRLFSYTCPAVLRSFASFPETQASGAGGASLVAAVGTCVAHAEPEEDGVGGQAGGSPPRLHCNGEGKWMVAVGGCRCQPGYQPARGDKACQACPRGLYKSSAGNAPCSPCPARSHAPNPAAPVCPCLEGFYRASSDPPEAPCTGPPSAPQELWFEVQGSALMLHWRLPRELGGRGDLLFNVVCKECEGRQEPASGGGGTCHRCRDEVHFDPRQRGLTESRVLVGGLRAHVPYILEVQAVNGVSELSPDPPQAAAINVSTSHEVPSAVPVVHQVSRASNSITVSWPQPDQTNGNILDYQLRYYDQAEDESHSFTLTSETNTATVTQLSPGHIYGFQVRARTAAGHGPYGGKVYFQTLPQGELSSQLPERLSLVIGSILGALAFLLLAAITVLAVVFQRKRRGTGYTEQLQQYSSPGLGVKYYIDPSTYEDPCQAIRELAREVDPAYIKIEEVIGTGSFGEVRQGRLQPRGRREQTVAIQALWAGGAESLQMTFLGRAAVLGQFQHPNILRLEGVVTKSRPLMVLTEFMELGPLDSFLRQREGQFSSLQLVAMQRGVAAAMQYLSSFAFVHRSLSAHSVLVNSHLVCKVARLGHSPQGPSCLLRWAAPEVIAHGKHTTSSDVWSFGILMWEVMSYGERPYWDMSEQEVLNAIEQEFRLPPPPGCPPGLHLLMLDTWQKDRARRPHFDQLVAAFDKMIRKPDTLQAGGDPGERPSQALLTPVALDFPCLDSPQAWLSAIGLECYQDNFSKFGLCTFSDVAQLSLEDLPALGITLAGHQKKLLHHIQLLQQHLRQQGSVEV

[11] = molecular target: Hepatocyte growth factor receptor (Homo sapiens) (UniProt P08581); conditions: at 1 µM
[12] = molecular target: Aurora kinase A (Homo sapiens, UniProt O14965)
[13] = molecular target: T2, Dual specificity mitogen-activated protein kinase kinase 5 (Homo sapiens) (UniProt Q13163); conditions: at 1 µM
T2 sequence (whole entry): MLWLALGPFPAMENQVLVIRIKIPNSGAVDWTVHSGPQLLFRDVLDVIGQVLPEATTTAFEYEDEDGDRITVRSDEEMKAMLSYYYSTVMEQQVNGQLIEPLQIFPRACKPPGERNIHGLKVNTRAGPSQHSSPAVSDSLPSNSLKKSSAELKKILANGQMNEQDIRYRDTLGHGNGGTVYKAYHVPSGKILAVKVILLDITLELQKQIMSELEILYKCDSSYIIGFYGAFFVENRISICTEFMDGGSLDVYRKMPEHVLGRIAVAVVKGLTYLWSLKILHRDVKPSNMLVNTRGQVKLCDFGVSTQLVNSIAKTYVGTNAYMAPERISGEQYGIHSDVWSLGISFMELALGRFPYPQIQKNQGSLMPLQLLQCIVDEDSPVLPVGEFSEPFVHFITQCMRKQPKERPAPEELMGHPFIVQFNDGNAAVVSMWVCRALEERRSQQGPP

[14] = molecular target: Proto-oncogene tyrosine-protein kinase Src (Homo sapiens, UniProt P12931); conditions: at 1 µM
[15] = molecular target: Receptor-type tyrosine-protein kinase FLT3 (Homo sapiens, UniProt P36888); assay: Selectivity interaction (NanoBRET assay (HEK293T cells)) EUB0000305b FLT3

Chain of Serine/threonine-protein kinase TAO1 (Homo sapiens) (Q7L7X3 whole entry): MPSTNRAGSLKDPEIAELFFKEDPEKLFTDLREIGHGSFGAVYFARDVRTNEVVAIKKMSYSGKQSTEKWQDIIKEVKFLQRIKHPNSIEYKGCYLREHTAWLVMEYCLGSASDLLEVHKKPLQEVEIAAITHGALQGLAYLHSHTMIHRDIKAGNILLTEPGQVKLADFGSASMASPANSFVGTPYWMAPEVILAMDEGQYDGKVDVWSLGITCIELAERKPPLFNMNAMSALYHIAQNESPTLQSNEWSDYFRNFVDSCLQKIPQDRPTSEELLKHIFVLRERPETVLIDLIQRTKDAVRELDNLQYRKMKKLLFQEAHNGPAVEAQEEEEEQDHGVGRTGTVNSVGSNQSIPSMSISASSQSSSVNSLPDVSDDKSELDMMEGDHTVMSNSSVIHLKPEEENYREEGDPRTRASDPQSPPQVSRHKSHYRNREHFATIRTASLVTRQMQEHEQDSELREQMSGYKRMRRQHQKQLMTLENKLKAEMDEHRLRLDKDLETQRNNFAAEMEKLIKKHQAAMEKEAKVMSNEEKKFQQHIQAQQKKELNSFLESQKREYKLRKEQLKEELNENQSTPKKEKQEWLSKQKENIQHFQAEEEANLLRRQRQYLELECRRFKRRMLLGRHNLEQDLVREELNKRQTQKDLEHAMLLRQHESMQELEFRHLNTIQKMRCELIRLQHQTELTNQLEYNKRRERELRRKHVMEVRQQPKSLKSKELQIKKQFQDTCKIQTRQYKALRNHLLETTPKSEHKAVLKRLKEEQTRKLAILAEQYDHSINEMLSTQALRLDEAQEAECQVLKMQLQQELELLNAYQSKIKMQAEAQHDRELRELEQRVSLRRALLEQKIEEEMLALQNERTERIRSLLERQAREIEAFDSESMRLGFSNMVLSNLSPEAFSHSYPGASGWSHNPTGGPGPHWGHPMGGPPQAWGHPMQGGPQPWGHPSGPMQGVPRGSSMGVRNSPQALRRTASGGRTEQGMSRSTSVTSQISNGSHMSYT
Chain of Serine/threonine-protein kinase PLK2 (Homo sapiens) (Q9NYY3 whole entry, looked up): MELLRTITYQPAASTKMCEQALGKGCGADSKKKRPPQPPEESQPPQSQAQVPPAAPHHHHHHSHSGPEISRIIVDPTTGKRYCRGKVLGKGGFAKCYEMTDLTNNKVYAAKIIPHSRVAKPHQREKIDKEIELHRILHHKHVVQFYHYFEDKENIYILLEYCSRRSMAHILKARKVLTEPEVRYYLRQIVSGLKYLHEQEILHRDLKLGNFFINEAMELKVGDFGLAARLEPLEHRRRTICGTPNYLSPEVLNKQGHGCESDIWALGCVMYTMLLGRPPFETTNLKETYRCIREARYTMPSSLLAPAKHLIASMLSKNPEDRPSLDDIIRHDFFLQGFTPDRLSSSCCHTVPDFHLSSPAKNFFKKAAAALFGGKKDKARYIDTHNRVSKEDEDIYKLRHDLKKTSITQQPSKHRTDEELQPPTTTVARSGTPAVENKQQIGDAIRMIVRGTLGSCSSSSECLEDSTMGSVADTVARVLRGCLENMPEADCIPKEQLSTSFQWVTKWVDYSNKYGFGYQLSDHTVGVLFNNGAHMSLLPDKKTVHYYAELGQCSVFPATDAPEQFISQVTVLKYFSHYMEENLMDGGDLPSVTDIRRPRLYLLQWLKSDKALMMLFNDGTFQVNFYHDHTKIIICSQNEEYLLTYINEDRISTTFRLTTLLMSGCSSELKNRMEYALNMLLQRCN
Chain of Casein kinase II subunit alpha (P68400 whole entry, looked up): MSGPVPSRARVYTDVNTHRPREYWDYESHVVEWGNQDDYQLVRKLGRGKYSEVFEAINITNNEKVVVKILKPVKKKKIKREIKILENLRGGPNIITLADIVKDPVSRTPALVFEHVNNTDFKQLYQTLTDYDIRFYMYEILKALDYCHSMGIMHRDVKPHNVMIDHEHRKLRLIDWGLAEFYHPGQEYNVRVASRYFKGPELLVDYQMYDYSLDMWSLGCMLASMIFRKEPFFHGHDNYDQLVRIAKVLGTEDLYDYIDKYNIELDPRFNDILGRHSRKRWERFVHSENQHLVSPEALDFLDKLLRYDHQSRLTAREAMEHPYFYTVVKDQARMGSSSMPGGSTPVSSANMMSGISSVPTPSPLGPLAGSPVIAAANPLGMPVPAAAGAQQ
Chain of Aurora kinase A (O14965 whole entry): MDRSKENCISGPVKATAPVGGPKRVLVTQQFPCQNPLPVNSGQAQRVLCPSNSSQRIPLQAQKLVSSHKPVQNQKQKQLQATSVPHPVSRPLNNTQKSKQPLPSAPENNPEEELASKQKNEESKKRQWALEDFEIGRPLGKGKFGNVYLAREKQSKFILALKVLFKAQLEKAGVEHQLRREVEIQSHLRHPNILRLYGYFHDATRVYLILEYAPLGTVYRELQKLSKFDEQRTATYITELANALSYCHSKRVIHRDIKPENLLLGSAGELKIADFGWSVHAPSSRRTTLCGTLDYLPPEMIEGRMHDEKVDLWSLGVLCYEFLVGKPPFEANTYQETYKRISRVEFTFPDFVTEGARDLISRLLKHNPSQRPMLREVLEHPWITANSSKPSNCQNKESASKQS
Chain of ALK tyrosine kinase receptor (Homo sapiens), Q9UM73 [C1156Y] (Q9UM73 whole entry C1156Y, looked up): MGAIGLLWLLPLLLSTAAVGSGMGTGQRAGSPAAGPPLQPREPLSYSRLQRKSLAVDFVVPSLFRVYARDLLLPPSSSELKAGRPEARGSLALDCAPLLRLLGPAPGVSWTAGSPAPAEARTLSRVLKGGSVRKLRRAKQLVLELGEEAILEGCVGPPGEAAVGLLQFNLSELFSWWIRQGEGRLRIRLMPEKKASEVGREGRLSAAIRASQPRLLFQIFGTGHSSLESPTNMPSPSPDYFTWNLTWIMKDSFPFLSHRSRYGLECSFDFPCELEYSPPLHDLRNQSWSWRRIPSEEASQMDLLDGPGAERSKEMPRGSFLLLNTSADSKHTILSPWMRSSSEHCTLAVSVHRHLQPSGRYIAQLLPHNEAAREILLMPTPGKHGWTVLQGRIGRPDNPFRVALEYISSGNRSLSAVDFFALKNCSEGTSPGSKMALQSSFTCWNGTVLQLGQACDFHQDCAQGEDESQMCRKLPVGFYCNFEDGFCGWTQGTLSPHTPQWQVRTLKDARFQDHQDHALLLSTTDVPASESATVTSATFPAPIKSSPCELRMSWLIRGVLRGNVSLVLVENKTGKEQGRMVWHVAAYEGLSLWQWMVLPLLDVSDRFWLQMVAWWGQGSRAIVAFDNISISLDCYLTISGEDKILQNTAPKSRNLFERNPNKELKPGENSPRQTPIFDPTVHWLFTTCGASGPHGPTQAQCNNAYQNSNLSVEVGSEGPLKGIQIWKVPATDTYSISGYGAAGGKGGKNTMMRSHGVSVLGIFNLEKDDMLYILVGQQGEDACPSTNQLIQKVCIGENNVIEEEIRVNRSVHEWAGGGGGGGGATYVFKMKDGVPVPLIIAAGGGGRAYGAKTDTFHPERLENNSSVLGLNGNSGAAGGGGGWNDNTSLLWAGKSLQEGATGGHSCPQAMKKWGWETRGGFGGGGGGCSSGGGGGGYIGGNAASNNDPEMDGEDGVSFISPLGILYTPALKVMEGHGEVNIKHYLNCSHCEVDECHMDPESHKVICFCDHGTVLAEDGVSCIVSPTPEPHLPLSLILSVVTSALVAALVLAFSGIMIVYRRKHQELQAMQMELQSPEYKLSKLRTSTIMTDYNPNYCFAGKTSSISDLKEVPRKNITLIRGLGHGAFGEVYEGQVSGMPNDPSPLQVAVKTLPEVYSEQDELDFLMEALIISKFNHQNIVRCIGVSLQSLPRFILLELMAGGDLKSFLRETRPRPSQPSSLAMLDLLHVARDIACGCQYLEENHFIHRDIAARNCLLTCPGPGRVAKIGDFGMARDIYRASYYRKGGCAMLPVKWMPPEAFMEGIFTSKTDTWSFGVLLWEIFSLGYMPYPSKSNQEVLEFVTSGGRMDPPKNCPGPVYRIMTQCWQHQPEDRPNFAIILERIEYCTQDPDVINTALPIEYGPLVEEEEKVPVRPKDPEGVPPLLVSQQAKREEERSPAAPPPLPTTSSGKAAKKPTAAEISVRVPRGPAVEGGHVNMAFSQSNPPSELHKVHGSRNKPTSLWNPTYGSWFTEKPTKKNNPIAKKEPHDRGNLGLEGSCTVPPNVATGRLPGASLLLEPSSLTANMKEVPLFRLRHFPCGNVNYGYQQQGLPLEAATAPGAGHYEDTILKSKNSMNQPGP
Chain of Mitogen-activated protein kinase 14 (Q16539 whole entry): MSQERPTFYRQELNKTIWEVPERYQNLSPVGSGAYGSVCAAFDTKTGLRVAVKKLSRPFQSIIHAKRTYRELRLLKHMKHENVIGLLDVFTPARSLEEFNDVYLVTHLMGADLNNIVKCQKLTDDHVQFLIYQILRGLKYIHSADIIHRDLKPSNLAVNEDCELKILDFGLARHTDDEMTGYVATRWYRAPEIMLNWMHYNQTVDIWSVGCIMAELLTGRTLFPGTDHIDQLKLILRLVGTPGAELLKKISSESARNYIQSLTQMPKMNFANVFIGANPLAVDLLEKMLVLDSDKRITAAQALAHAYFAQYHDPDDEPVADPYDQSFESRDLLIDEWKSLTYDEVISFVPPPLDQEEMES
Chain of Proto-oncogene tyrosine-protein kinase Src (P12931 whole entry, looked up): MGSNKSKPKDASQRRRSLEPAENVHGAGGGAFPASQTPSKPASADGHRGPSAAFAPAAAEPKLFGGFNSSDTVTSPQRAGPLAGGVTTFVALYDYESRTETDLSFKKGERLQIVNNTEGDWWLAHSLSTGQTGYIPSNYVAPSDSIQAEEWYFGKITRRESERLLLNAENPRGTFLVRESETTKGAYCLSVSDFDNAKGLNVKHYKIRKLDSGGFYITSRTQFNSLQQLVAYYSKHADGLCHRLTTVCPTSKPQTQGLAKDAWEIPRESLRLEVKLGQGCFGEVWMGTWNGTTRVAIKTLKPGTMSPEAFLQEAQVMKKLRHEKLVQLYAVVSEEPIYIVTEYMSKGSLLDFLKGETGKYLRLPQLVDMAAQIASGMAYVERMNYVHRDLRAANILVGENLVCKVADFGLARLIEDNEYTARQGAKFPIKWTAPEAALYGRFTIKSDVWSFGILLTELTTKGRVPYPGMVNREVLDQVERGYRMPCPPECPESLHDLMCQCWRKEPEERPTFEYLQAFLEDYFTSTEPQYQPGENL

Structure (SMILES): CC[C@@H]1C(=O)N(C)c2cnc(Nc3ccc(C(=O)NC4CCN(C)CC4)cc3OC)nc2N1C1CCCC1
% of control [2]: 103% | % of control [3]: 1.2% | % of control [4]: 0.3% | % of control [5]: 0.3% | % of control [6]: 100% | % of control [7]: 102%

Structure (SMILES): CN(c1ccnc(CNc2nc(Nc3ccc4c(c3)CC(=O)N4)ncc2C(F)(F)F)n1)S(C)(=O)=O [PF-00911705]
% of control [8]: 3.7% | % of control [9]: 0.5%

Structure (SMILES): CCOc1cn(-c2ccc(F)cc2C)nc1C(=O)Nc1ccc(Oc2ccnc3cc(OC)c(OC)cc23)c(F)c1
% of control [10]: < 10% | % of control [11]: < 10% | IC50 [12]: 36 nM | % of control [13]: < 10% | % of control [14]: < 10%

More lines, now with the values ahead:

% of control [1]: 2.6%
Structure (SMILES): CN1C(=O)c2sccc2N(C)c2nc(Nc3ccc(S(N)(=O)=O)cc3)ncc21

IC50 [15]: > 20000 nM
Structure (SMILES): C[C@H](c1ccnc(Nc2nc3ccc(-c4cc(N(C)C)ncn4)cc3[nH]2)c1)N1CCN(C(=O)CC(F)(F)F)CC1 [BAY-985]
